In US6960614B2, “Oxygenated esters of 4-lodo phenylamino benzhydroxamic acids” (Warner-Lambert Company, priority 2000, dated 2005):
Structures can show the parent of a compound that is named as a salt.

Tested on: MEK
Assay: Cellular Assay for Measuring MEK Inhibition (inhibition of ERK phosphorylation in C26 cells, Western blot)
Assay type: cell-based, murine
Details: for % Inhibition @ 0.1 μM / % Inhibition @ 1 μM / % Inhibition @ 10 μM: ERK phosphorylation in C26 cells; for IC50: inhibition of ERK phosphorylation in murine colon 26 (C26) carcinoma cells, determined graphically from dose response curve
Method in brief: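 Exponentially growing murine colon 26 (C26) carcinoma cells treated with varying compound concentrations at 37° C, then lysed. Western blot with antibody to dually phosphorylated ERK1/ERK2; blots stripped and re-probed for total ERK1/ERK2.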

SMILES	% Inhibition @ 0.1 μM [%]	% Inhibition @ 1 μM [%]	% Inhibition @ 10 μM [%]	IC50 [nM]
CC(C)(O)CONC(=O)c1ccc(F)c(F)c1Nc1ccc(I)cc1F [Example 177, 3,4-Difluoro-2-(2-fluoro-4-iodo-phenylamino)-N-(2-hydroxy-2-methyl-propoxy)-benzamide]	91.6	95.7		
Cc1cc(I)ccc1Nc1c(C(=O)NOCC(C)(C)O)cc(F)c(F)c1F [Example 171, 3,4,5-Trifluoro-N-(2-hydroxy-2-methyl-propoxy)-2-(4-iodo-2-methyl-phenylamino)-benzamide]	35.6	94.6		
CC(C)(O)CONC(=O)c1ccc(F)c(F)c1Nc1ccc(Br)cc1F [Example 182, 2-(4-Bromo-2-fluoro-phenylamino)-3,4-difluoro-N-(2-hydroxy-2-methyl-propoxy)-benzamide]	13.1	81.9		
CCC(O)CONC(=O)c1cc(Cl)c(F)c(F)c1Nc1ccc(F)cc1F (stereo not shown) [Example 116, 5-Chloro-2-(2,4-difluoro-phenylamino)-3,4-difluoro-N-(2-hydroxy-butoxy)-benzamide]		62.8	75.8	
CC(CO)ONC(=O)c1ccc(F)c(F)c1Nc1ccc(Cl)cc1F (stereo not shown) [Example 125, 2-(4-Chloro-2-fluoro-phenylamino)-3,4-difluoro-N-(2-hydroxy-1-methyl-ethoxy)-benzamide]	9.1	89		
Cc1cc(I)ccc1Nc1c(C(=O)NOC(C)CO)cc(F)c(F)c1F (stereo not shown) [Example 122, 3,4,5-Trifluoro-N-(2-hydroxy-1-methyl-ethoxy)-2-(4-iodo-2-methyl-phenylamino)-benzamide]	49.6	87.3		
Cc1cc(I)ccc1Nc1c(C(=O)NOCCNCC(F)(F)F)ccc(F)c1F [Example 80, 3,4-Difluoro-2-(4-iodo-2-methyl-phenylamino)-N-[2-(2,2,2-trifluoro-ethylamino)-ethoxy]-benzamide; hydrochloride]				490
COCCOCCONC(=O)c1cc(F)c(F)c(F)c1Nc1ccc(I)cc1Cl [Example 208, 2-(2-Chloro-4-iodo-phenylamino)-3,4,5-trifluoro-N-[2-(2-methoxy-ethoxy)-ethoxy]-benzamide]				1030
O=C(NOCCC(O)CO)c1cc(Br)c(F)c(F)c1Nc1ccc(I)cc1Cl (stereo not shown) [Example 94, 5-Bromo-2-(2-chloro-4-iodo-phenylamino)-N-(3,4-dihydroxy-butoxy)-3,4-difluoro-benzamide]				280
O=C(NOCCC(O)CO)c1ccc(F)c(F)c1Nc1ccc(I)cc1Cl (stereo not shown) [Example 92, 2-(2-Chloro-4-iodo-phenylamino)-N-(3,4-dihydroxy-butoxy)-3,4-difluoro-benzamide]	51.8	92.4		
O=C(NOCC(O)COc1ccccc1)c1cc(Cl)c(F)c(F)c1Nc1ccc(I)cc1F (stereo not shown) [Example 192, 5-Chloro-3,4-difluoro-2-(2-fluoro-4-iodo-phenylamino)-N-(2-hydroxy-3-phenoxy-propoxy)-benzamide]				7
CC(C)(CO)CONC(=O)c1cc(Cl)c(F)c(F)c1Nc1ccc(I)cc1Cl [Example 200, 5-Chloro-2-(2-chloro-4-iodo-phenylamino)-3,4-difluoro-N-(3-hydroxy-2,2-dimethyl-propoxy)-benzamide]				300
COCCONC(=O)c1cc(Cl)c(F)c(F)c1Nc1ccc(I)cc1C [Example 141, 5-Chloro-3,4-difluoro-2-(4-iodo-2-methyl-phenylamino)-N-(2-methoxy-ethoxy)-benzamide]	38	92.7		
Cc1cc(I)ccc1Nc1c(C(=O)NOCC(C)(C)CO)ccc(F)c1F [Example 197, 3,4-Difluoro-N-(3-hydroxy-2,2-dimethyl-propoxy)-2-(4-iodo-2-methyl-phenylamino)-benzamide]				51
Cc1cc(I)ccc1Nc1c(C(=O)NOCC(C)O)cc(F)c(F)c1F (stereo not shown) [Example 157, 3,4,5-Trifluoro-N-(2-hydroxy-propoxy)-2-(4-iodo-2-methyl-phenylamino)-benzamide]	50.7	91.5		
CC(C)(O)CONC(=O)c1cc(F)c(F)c(F)c1Nc1ccc(I)cc1Cl [Example 170, 2-(2-Chloro-4-iodo-phenylamino)-3,4,5-trifluoro-N-(2-hydroxy-2-methyl-propoxy)-benzamide]	19	85.7		
CC(CO)ONC(=O)c1cc(Cl)c(F)c(F)c1Nc1ccc(F)cc1F (stereo not shown) [Example 132, 5-Chloro-2-(2,4-difluoro-phenylamino)-3,4-difluoro-N-(2-hydroxy-1-methyl-ethoxy)-benzamide]		45.7	80.6	
COCCONC(=O)c1cc(Br)c(F)c(F)c1Nc1ccc(I)cc1Cl [Example 139, 5-Bromo-2-(2-chloro-4-iodo-phenylamino)-3,4-difluoro-N-(2-methoxy-ethoxy)-benzamide]				360
O=C(NOCC1(CO)CC1)c1cc(Cl)c(F)c(F)c1Nc1ccc(F)cc1F [Example 225, 5-Chloro-2-(2,4-difluoro-phenylamino)-3,4-difluoro-N-(1-hydroxymethyl-cyclopropylmethoxy)-benzamide]	0	8.7	36.9	

SMILES	% Inhibition @ 0.1 μM [%]	% Inhibition @ 1 μM [%]	% Inhibition @ 10 μM [%]	IC50 [nM]
Cc1cc(I)ccc1Nc1c(C(=O)NOCCC(O)CO)cc(Br)c(F)c1F (stereo not shown) [Example 97, 5-Bromo-N-(3,4-dihydroxy-butoxy)-3,4-difluoro-2-(4-iodo-2-methyl-phenylamino)-benzamide]	30.1	91.9		
CC(CO)ONC(=O)c1cc(Cl)c(F)c(F)c1Nc1ccc(I)cc1F (stereo not shown) [Example 130, 5-Chloro-3,4-difluoro-2-(2-fluoro-4-iodo-phenylamino)-N-(2-hydroxy-1-methyl-ethoxy)-benzamide]				4
CC(CO)ONC(=O)c1cc(F)c(F)cc1Nc1ccc(I)cc1F (stereo not shown) [Example 131, 4,5-Difluoro-2-(2-fluoro-4-iodo-phenylamino)-N-(2-hydroxy-1-methyl-ethoxy)-benzamide]	78.7	91.3		
O=C(NOCCCO)c1cc(Br)c(F)c(F)c1Nc1ccc(I)cc1Cl [Example 98, 5-Bromo-2-(2-chloro-4-iodo-phenylamino)-3,4-difluoro-N-(3-hydroxy-propoxy)-benzamide]				11
Cc1cc(I)ccc1Nc1c(C(=O)NOCC(O)CN2CCOCC2)cc(Br)c(F)c1F (stereo not shown) [Example 147, 5-Bromo-3,4-difluoro-N-(2-hydroxy-3-morpholin-4-yl-propoxy)-2-(4-iodo-2-methyl-phenylamino)-benzamide]				100
Cc1cc(I)ccc1Nc1c(C(=O)NOCCNc2ccccc2)cc(Br)c(F)c1F [Example 231, 5-Bromo-3,4-difluoro-2-(4-iodo-2-methyl-phenylamino)-N-(2-phenylamino-ethoxy)-benzamide]				67
CC(O)CONC(=O)c1cc(F)c(F)cc1Nc1ccc(I)cc1F (stereo not shown) [Example 169, 4,5-Difluoro-2-(2-fluoro-4-iodo-phenylamino)-N-(2-hydroxy-propoxy)-benzamide]				14
Cc1cc(I)ccc1Nc1c(C(=O)NOCC(C)O)cc(Br)c(F)c1F (stereo not shown) [Example 159, 5-Bromo-3,4-difluoro-N-(2-hydroxy-propoxy)-2-(4-iodo-2-methyl-phenylamino)-benzamide]	88.4	100		
CCC(O)CONC(=O)c1ccc(F)c(F)c1Nc1ccc(I)cc1Cl (stereo not shown) [Example 104, 2-(2-Chloro-4-iodo-phenylamino)-3,4-difluoro-N-(2-hydroxy-butoxy)-benzamide]				24
O=C(NOCCNc1ccccc1)c1cc(F)c(F)c(F)c1Nc1ccc(I)cc1Cl [Example 233, 2-(2-Chloro-4-iodo-phenylamino)-3,4,5-trifluoro-N-(2-phenylamino-ethoxy)-benzamide]				33
O=C(NOCC(O)CO)c1cc(Br)c(F)c(F)c1Nc1ccc(I)cc1F (stereo not shown) [Example 40, 5-Bromo-N-(2,3-dihydroxy-propoxy)-3,4-difluoro-2-(2-fluoro-4-iodo-phenylamino)-benzamide]				1.4
COCCONC(=O)c1cc(F)c(F)c(F)c1Nc1ccc(I)cc1Cl [Example 135, 2-(2-Chloro-4-iodo-phenylamino)-3,4,5-trifluoro-N-(2-methoxy-ethoxy)-benzamide]	0	41.4		
CC(O)CONC(=O)c1ccc(F)c(F)c1Nc1ccc(I)cc1F (stereo not shown) [Example 164, 3,4-Difluoro-2-(2-fluoro-4-iodo-phenylamino)-N-(2-hydroxy-propoxy)-benzamide]				3
O=C(NOCC(O)CN1CCOCC1)c1ccc(F)c(F)c1Nc1ccc(I)cc1F (stereo not shown) [Example 151, 3,4-Difluoro-2-(2-fluoro-4-iodo-phenylamino)-N-(2-hydroxy-3-morpholin-4-yl-propoxy)-benzamide]				41
O=C(NOCCNc1ccccc1)c1ccc(F)c(F)c1Nc1ccc(I)cc1Cl [Example 232, 2-(2-Chloro-4-iodo-phenylamino)-3,4-difluoro-N-(2-phenylamino-ethoxy)-benzamide]				22
Cc1cc(I)ccc1Nc1c(C(=O)NOC(C)CO)ccc(F)c1F (stereo not shown) [Example 126, 3,4-Difluoro-N-(2-hydroxy-1-methyl-ethoxy)-2-(4-iodo-2-methyl-phenylamino)-benzamide]				26
O=C(NOCCO)c1cc(F)c(F)cc1Nc1ccc(I)cc1Cl [Example 17, 2-(2-Chloro-4-iodo-phenylamino)-4,5-difluoro-N-(2-hydroxy-ethoxy)-benzamide]				45
CC(CO)ONC(=O)c1cc(Br)c(F)c(F)c1Nc1ccc(I)cc1F (stereo not shown) [Example 129, 5-Bromo-3,4-difluoro-2-(2-fluoro-4-iodo-phenylamino)-N-(2-hydroxy-1-methyl-ethoxy)-benzamide]	100	100		
